The record followed here is BindingDB's records for patent US20250313563 (The Broad Institute, 2025).

Test [1] deals with Glycogen synthase kinase-3 beta (Homo sapiens, UniProt P49841). As to the kind of experiment: TR-FRET Assay. How it is done: (§1) The assay was performed in a white, 384 well, low volume, flat bottom plate (Grenier). […] The kinase activity was quenched with 2 μL of 250 mM EDTA. A 10 μL volume of 40 nM Strepavidin-d2, 2 nM Tb2+-pSer641 antibody in TR-FRET Detection Buffer (Invitrogen) was then added.

Test [2] concerns the target Glycogen synthase kinase-3 alpha (Homo sapiens, UniProt P49840). The test is described as follows: TR-FRET Assay. As for the experimental part:
as §1

Values joined by “and” are separate entries in the source; they are usually repeats but may differ in a detail not shown here. Equal entries are not always repeated.

Chain of Glycogen synthase kinase-3 beta (P49841 whole entry): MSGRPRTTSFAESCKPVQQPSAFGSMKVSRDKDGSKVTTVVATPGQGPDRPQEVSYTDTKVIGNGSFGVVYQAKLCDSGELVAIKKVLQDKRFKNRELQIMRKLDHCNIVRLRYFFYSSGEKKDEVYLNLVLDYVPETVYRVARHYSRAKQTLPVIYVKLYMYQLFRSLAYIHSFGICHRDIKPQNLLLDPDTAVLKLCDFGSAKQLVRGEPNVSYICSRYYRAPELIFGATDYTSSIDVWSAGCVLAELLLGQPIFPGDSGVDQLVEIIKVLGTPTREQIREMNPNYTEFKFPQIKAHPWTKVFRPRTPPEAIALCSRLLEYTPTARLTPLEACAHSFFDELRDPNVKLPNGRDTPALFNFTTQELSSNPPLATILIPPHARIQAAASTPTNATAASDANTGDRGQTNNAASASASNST
Chain of Glycogen synthase kinase-3 alpha (P49840 whole entry): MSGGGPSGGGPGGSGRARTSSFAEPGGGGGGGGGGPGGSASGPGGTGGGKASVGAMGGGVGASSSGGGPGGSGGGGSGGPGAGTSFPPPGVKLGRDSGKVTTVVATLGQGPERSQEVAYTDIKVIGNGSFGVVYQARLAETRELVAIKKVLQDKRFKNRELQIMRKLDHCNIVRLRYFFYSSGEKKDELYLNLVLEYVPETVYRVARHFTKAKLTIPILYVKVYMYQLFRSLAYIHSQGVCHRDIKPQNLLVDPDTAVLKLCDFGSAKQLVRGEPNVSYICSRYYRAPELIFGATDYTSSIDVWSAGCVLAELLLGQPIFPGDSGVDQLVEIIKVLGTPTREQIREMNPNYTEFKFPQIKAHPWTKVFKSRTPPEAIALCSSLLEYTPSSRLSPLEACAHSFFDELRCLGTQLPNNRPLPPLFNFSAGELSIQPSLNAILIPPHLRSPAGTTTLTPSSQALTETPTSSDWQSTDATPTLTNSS

Turning to `CC[C@@]1(c2cccc(-c3c([N+](=O)O)c(C)nn3C)c2)C2=CN=NC2NC2=C1C(=O)NC(C)(C)C2` (stereo partly drawn) [US20250313563, Compound 952209], the IC50 in test [1] and in test [2] was less than 100 nM throughout.
For the compound `COC(=O)C1(c2ccccc2)CC2(C1)C1=C(N=NC1)NC1=C2C(=O)CC(C)(C)C1` (stereo not drawn) [US20250313563, Compound 942366], the IC50 in test [1] and in test [2] was less than 100 nM in each case.
Take `CCC1(c2cccc(Oc3cncnc3)c2)C2=CN=NC2NC2=C1C(=O)CC(C)(C)C2` (stereo not drawn) [US20250313563, Compound 917212]: the IC50 in test [1] was 100 to 1000 nM; in test [2], less than 100 nM.
The like results for `CC[C@]1(c2cccc(-c3c(C)nn(C)c3C)c2)C2=C(CC(C)(C)NC2=O)NC2N=NC(C)=C21` (stereo partly drawn) [US20250313563, Compound 947573] were, in that order, 1000 to 5000 nM and 100 to 1000 nM.
For `CCC1(c2cccc(-c3ccncc3)c2)C2=CN=NC2NC2=C1C(=O)CC(C)C2` (stereo not drawn) [US20250313563, Compound 856947], in that order: 100 to 1000 nM and less than 100 nM.
The like results for `CC[C@]1(c2cccc(C(F)(F)F)c2)C2=CN=NC2NC2=C1C(=O)N(c1ccsc1)CC2` (stereo partly drawn) [US20250313563, Compound 952630] were, in that order, 100 to 1000 nM and less than 100 nM.
As for `CC[C@@]1(c2cccc(N(C)C(C)=O)c2)C2=CN=NC2NC2=C1C(=O)CC(C)(C)C2` (stereo partly drawn) [US20250313563, Compound 810359], the IC50 in test [1] and in test [2] was more than 5000 nM throughout.
As to `CC1(C)CC(=O)C2=C(C1)NC1=C(CN=N1)C21CCC2(CCC(=O)N2C(=O)OC(C)(C)C)CC1` (stereo not drawn) [US20250313563, Compound 912217], the IC50 was more than 5000 nM in test [1] and 1000 to 5000 nM in test [2].
Consider `CCC1(c2cccc(-c3ccnc(C(F)(F)F)c3)c2)C2=CN=NC2NC2=C1C(=O)CC(C)(C)C2` (stereo not drawn) [US20250313563, Compound 913350], for which the IC50 was < 100 nM and 100 to 1000 nM in test [1]; 100 to 1000 nM and < 100 nM in test [2].
As to `CC1(C)CC(=O)C2=C(C1)NC1=C(CN=N1)C21CCCSCC1` (stereo not drawn) [US20250313563, Compound 913126], the IC50 was 100 to 1000 nM in test [1] and less than 100 nM in test [2].
For the compound `CC1(C)CC(=O)C2=C(C1)NC1=C(CN=N1)C21CCN(S(=O)(=O)c2ccc(F)cn2)CC1` [US20250313563, Compound 947251], the IC50 in test [1] and in test [2] was 100 to 1000 nM each time.
As for `O=C1CC2(CCOC2)CC2=C1C1(CCOCC1)C1=C(N=NC1)N2` (stereo not drawn) [US20250313563, Compound 889573], the IC50 was 100 to 1000 nM in test [1] and less than 100 nM in test [2].
The like results for `CCC1(c2cccc(C(F)(F)F)c2)C2=C(N=NC2)NC2=C1C(=O)NC2(C)C` (stereo not drawn) [US20250313563, Compound 912104] were, in that order, 100 to 1000 nM and less than 100 nM.
Take `Cc1cc(S(=O)(=O)N2CCC3(CC2)C2=C(N=NC2)NC2=C3C(=O)CC(C)(C)C2)cc(C)n1` [US20250313563, Compound 947616]: the IC50 in test [1] was < 100 nM and 1000 to 5000 nM; in test [2], < 100 nM and 100 to 1000 nM.
Take `CC1(C)CC(=O)C2=C(C1)NC1N=NC(CCC(F)(F)F)=C1[C@]21CCc2c(F)cccc21` (stereo partly drawn) [US20250313563, Compound 874324]: the IC50 in test [1] and in test [2] was 100 to 1000 nM throughout.
In the case of `Cc1cccc(S(=O)(=O)N2CCC3(CC2)C2=C(N=NC2)NC2=C3C(=O)CC(C)(C)C2)c1` [US20250313563, Compound 947261], the IC50 in test [1] and in test [2] was less than 100 nM in each case.
`CC[C@]1(c2cccc(C(F)(F)F)c2)C2=CN=NC2NC2=C1C(=O)N[C@H](C(C)(C)C)C2` (stereo partly drawn) [US20250313563, Compound 945920]: the IC50 in test [1] is 100 to 1000 nM and 1000 to 5000 nM; in test [2] it was < 100 nM and 100 to 1000 nM.
For the compound `CCC1(c2cccc(N(CCc3ccccc3)C(C)=O)c2)C2=CN=NC2NC2=C1C(=O)CC(C)(C)C2` (stereo not drawn) [US20250313563, Compound 912064], the IC50 in test [1] and in test [2] was less than 100 nM throughout.
Turning to `CC[C@]1(c2cccc(C(F)(F)F)c2)C2=C(CC(C)(C)NC2=O)NC2N=NC(F)=C21` (stereo partly drawn) [US20250313563, Compound 957518], the values for the IC50 in test [1] and in test [2] were 100 to 1000 nM and less than 100 nM, respectively.
Consider `CC[C@]1(c2cccc(C(F)(F)F)c2)C2=CN=NC2NC2=C1C(=O)CC1(CCCC1)C2` (stereo partly drawn) [US20250313563, Compound 801311], for which the IC50 in test [1] was < 100 nM and 100 to 1000 nM; in test [2], less than 100 nM.
For the compound `CC[C@]1(c2cccc(-c3ccnc4c3CCCC4)c2)C2=CN=NC2NC2=C1C(=O)CC(C)(C)C2` (stereo partly drawn) [US20250313563, Compound 944036], the IC50 in test [1] was more than 5000 nM; in test [2], 1000 to 5000 nM.
For `CC1(C)CC(=O)C2=C(C1)NC1=C(CN=N1)C21CCC(c2ccccc2)CC1` (stereo not drawn) [US20250313563, Compound 874975], in that order: less than 100 nM and less than 100 nM.
The like results for `CC[C@@]1(c2cccc(-c3ccnc(C)c3)c2)C2=CN=NC2NC2=C1C(=O)C[C@H](C)C2` (stereo partly drawn) [US20250313563, Compound 932638] were, in that order, more than 5000 nM and more than 5000 nM.
For `CCc1cc(N(C)c2cccc(C3(CC)C4=CN=NC4NC4=C3C(=O)CC(C)(C)C4)c2)ccn1` (stereo not drawn) [US20250313563, Compound 945600], in that order: 1000 to 5000 nM and 100 to 1000 nM.
`CC[C@]1(c2cccc(-c3cn(C)nc3C)c2)C2=CN=NC2NC2=C1C(=O)CC(C)(C)C2` (stereo partly drawn) [US20250313563, Compound 945545]: the IC50 in test [1] was more than 5000 nM; in test [2], 1000 to 5000 nM.
For `CC[C@@]1(c2cccc(N(C)c3ccnc(F)c3)c2)C2=CN=NC2NC2=C1C(=O)CC(C)(C)C2` (stereo partly drawn) [US20250313563, Compound 929453], in that order: more than 5000 nM and 1000 to 5000 nM.
The like results for `CC[C@@]1(c2cccc(-c3cnn4cc(F)cc(F)c34)c2)C2=CN=NC2NC2=C1C(=O)NC(C)(C)C2` (stereo partly drawn) [US20250313563, Compound 950565] were, in that order, 100 to 1000 nM and less than 100 nM.
The like results for `CCN1CC2(C1)C1=C(N=NC1)NC1=C2C(=O)CC(C)(C)C1` [US20250313563, Compound 929448] were, in that order, more than 5000 nM and more than 5000 nM.
As for `CC[C@@]1(c2cccc(-c3cc(OC)ncc3F)c2)C2=CN=NC2NC2=C1C(=O)CC(C)(C)C2` (stereo partly drawn) [US20250313563, Compound 944032], the IC50 in test [1] fell in the range of 1000 to 5000 nM; in test [2] it was 100 to 1000 nM.
The like results for `CC[C@]1(c2cccc(-c3ccncc3F)c2)C2=CN=NC2NC2=C1C(=O)NC(C)(C)C2` (stereo partly drawn) [US20250313563, Compound 947874] were, in that order, 1000 to 5000 nM and 100 to 1000 nM.
The like results for `CC1(C)CC(=O)C2=C(C1)NC1=C(CN=N1)C21CCN(S(=O)(=O)c2cccc(Cl)c2Cl)CC1` [US20250313563, Compound 947249] were, in that order, less than 100 nM and less than 100 nM.
The like results for `CC[C@@]1(c2cccc(C(F)(F)F)c2)C2=CN=NC2NC2=C1C(=O)N(c1cn(C)nc1C)CC2` (stereo partly drawn) [US20250313563, Compound 949642] were, in that order, 1000 to 5000 nM and 100 to 1000 nM.
In the case of `CCC1(c2cccc(-c3ccnc(OC)c3)c2)C2=C(CC(C)(C)CC2=O)NC2N=NC(C)=C21` (stereo not drawn) [US20250313563, Compound 883985], the IC50 in test [1] was 100 to 1000 nM; in test [2], less than 100 nM.
In the case of `CC[C@@]1(c2ccccc2)C2=CN=NC2NC2=C1C(=O)[C@H](F)C(C)(C)C2` (stereo partly drawn) [US20250313563, Compound 826766], the IC50 in test [1] and in test [2] was 100 to 1000 nM in each case.
